Measured values: a melting point compilation (Tetko et al.; mined from patent text by program, amines drawn as free bases though some values may be those of a salt)

| Structure (SMILES) | melting point |
| --- | --- |
| CC(=O)SCc1ccccc1CCC(=O)Nc1cccc(C(=O)OCCBr)c1 | 85 to 88 °C |
| COC(=O)CNc1ccc(CCNC(=O)c2ccc(C#N)cc2)cc1 | 161 to 162 °C |
| COc1ccccc1NC(=O)Nc1nc(Nc2ccccc2-c2ccccc2)nc(N(CC(=O)O)Cc2ccc(F)cc2)n1 | 120 to 125 °C |
| NC(=O)Cc1nc(C(=O)c2ccc(F)cc2)no1 | 197 to 199 °C |
| Nc1c(F)c(F)c(F)c2c1c(=O)c(C(=O)O)cn2C1CC1 | 269 to 271 °C |
| Cc1ccc(-n2cc(C(=O)O)c(=O)c3ccc(-c4ccncc4)cc32)cc1C | 301 to 303 °C |
| CC(=O)c1ncn2c1CN=C(c1ccccc1Cl)c1cc(Cl)ccc1-2 | 214 to 216 °C |
| C=CCNc1nc(C)cc(C)n1 | 62 to 63 °C |
| CC(=O)OC1CSC(Oc2cnccc2C#N)C(OC(C)=O)C1OC(C)=O (centres undefined) | 167 °C |
| COc1ccc2ccc(O)c(C=O)c2c1 | 126 °C |
| COC(=S)c1cnccc1Cc1ccccc1 | 98 to 99 °C |
| COC(=O)NC1=NCC(c2cccc(OC)c2)CN1 (centres undefined) | 218 to 221 °C |
| Cc1nc(N2CCN(Cc3cc(F)cc(F)c3)C2=O)sc1C(N)=O | > 200 °C |
| COc1cc2nc3c(c(-c4cc(OC)c(O)c(OC)c4)c2cc1OC)C(=O)OC3 | 247 to 248 °C |
| O=c1[nH]c2ccccc2n2cnc(-c3ccc(F)cc3)c12 | > 300 °C |
| COc1cc(C(C)=NOCc2ccc3nonc3c2)ccc1F | 65 °C |
| COc1ccc(N2CCN(c3ccc(S(=O)(=O)N[C@@H](Cc4ccccc4)C(=O)O)cc3)CC2)cc1 | 203 to 205 °C |
| c1cn2nc(SCCOC3CCCCO3)ccc2n1 (centres undefined) | 60 to 62 °C |
| Cc1c(-c2ccc(OC(C)C)cc2)n(Cc2ccc(OCCN3CCCCCC3)cc2)c2ccc(O)cc12 | 120 to 125 °C |
| CCOC(=O)c1cc(C(=O)OCC)c2c(Cl)cc(Cl)cc2n1 | 104 to 106 °C |
| OC(CN1CC=C(c2c[nH]c3ccccc23)CC1)C1COc2ccccc2O1 (centres undefined) | 177 °C |
| COc1cc(C=C(C#N)C(=O)Nc2cccc(Cl)c2)cc(F)c1O | 235 °C |
| Nc1c2c(nc3ccccc13)CCC=C2 | 178 to 179 °C |
| O=CC(=Cc1ccccc1Cl)C(C=O)=Cc1ccccc1Cl | 177 to 178 °C |
| CCN(CC)C(=O)Cc1ccc(NC(=O)/C=C/c2cnn(C)c2-c2ccc(F)cc2)cc1 | 175 to 176 °C |

| Structure (SMILES) | melting point |
| --- | --- |
| COc1cccc(NC(=O)c2ccccc2[N+](=O)[O-])c1 | 156 to 158 °C |
| O=C(Nc1cc2ncc(CN3CCCC3)cc2cc1F)c1ccc(-c2ccccc2)cc1F | 163 to 164 °C |
| CSCCC(NC(=O)Nc1cccc(C)c1)C(=O)O (racemic) | 143 °C |
| CCOC1CC2(C)C(CCC3C2C(=NO)CC2(C)C3CCC23OCCO3)CC1O (centres undefined) | 136 to 140 °C |
| CC(=O)Nc1ccn(C2OC(COC(C)=O)C(Br)C2OC(C)=O)c(=O)n1 (centres undefined) | 179 to 180 °C |
| O=C(O)COc1ccc2c(=O)c3c(F)cccc3oc2c1 | 180 to 183 °C |
| O=C(c1cc(=O)c2cc(O)ccc2[nH]1)N1CCC(Oc2ccccc2)CC1 | 270 °C |
| COC(=O)c1cc2cc(-c3ccc4ccc(Cl)cc4n3)ccc2o1 | 178 to 181 °C |
| Fc1cccc(-c2ncc(-c3cnc(-c4cccnc4)[nH]3)cn2)c1 | 309 °C |
| CCNC(=O)CC1CN=C(c2cc3cc(Oc4ccc(S(C)(=O)=O)nc4)cc(OC)c3[nH]2)S1 (centres undefined) | 236 to 237 °C |
| O=C(Nc1ccc([N+](=O)[O-])cc1)C(=O)N1CCC(Cc2ccccc2)CC1 | 162 to 165 °C |
| CC(C)(C)c1ccc2c(c1)[C@H]1Cc3ccccc3[C@H]1N2 (relative stereo) | 103 to 105 °C |
| CCOC(=O)c1[nH]c(SCC)nc1C(C)(C)O | 82 to 85 °C |
| CS(=O)(=O)c1ccc(-n2cncc2-c2ccc(Cl)cc2)cc1 | 192 to 193 °C |
| CCN1CCc2ccc(Nc3ncc(Cl)c(N[C@H]4CCC[C@H]4C(N)=O)n3)cc2CC1 (relative stereo) | 237 to 242 °C |
| Nc1ccc(F)c(NC(=O)C(F)(F)F)c1 | 116 to 118 °C |
| O=C1c2ccccc2OC1Br (centres undefined) | 60 °C |
| CC1(C)Oc2c(N)ccc(Cl)c2C1=O | 71 to 73 °C |
| C=CCc1c(O)cc(Cl)c2c(-c3ccccc3F)noc12 | 211 to 212 °C |
| COC(=O)C(c1ccc(Cl)cc1)c1c(Cl)cc(-n2ncc(=O)n(C)c2=O)cc1Cl (centres undefined) | 173 °C |
| CC(C)(C)c1cc(C(=O)Nc2nc(C(N)=O)c(CCN3CC4CCC(CC4)C3)s2)cc(C(C)(C)C)c1O | 275 to 276 °C |
| CCc1cc2c(cc1O)C(C)(C)CCC2(C)C | 88 to 89 °C |
| O=[N+]([O-])c1ccc(Oc2ccccc2)cc1OCc1ccccc1 | 96 to 98 °C |
| Oc1ccc2c(c1)C(Cc1c[nH]cn1)CC2 (centres undefined) | 206 to 208 °C |
| CN(C)C(=O)C=Cc1ccc(C=CC(=O)N(C)C)cc1 | 247 °C |

| Structure (SMILES) | melting point |
| --- | --- |
| O=C1N(c2ccccc2)c2ccccc2C1(Cc1ccncc1)Cc1ccc([N+](=O)[O-])cc1 (centres undefined) | 168 to 169 °C |
| CCOC(=O)COc1ccc(SCc2cccc3[nH]c(-c4ccc(C(F)(F)F)cc4)cc23)cc1C | 85 to 88 °C |
| CCOC(=O)c1cnc2c(C(=O)Nc3cc4cccnc4cc3OC)csc2c1 | 265 to 270 °C |
| CC(C)n1nc(-c2c(-c3ccccc3)nc(Cl)c(N)c2Cl)ccc1=O | 186 to 188 °C |
| O=C(O)COc1cccc2c1CCc1sc(S(=O)(=O)C(c3ccccc3F)c3ccccc3F)nc1-2 | 204 to 208 °C |
| CSc1c(CO)sc2c1CCN(C)CC2c1ccccc1 (centres undefined) | 146 °C |
| C=CCNc1nc(NCC=C)nc(N2CCN(C(=O)n3ccnc3)CC2)n1 | 78 to 82 °C |
| BrCC[Si](CCBr)(CCBr)CCBr | 90 to 91 °C |
| O=c1[nH]c(=O)c2cc(C(c3ccccc3)n3cncn3)ccc2[nH]1 (centres undefined) | 281 °C |
| CCNC(=O)c1ccccc1-c1ccccc1 | 77 to 79 °C |
| CCN1C(=O)c2cccc3c(S(C)(=O)=O)ccc1c23 | 199 to 203 °C |
| CC(=O)OCC1OC(n2c(Cl)nc3cc(Cl)c(Cl)cc32)C(OC(C)=O)C1OC(C)=O (centres undefined) | 145 to 146 °C |
| COc1cccc(Cn2cnc3c(-c4ccco4)nc(Cl)nc32)c1 | 160 to 161 °C |
| C#CCOc1ccc2c(c1)c(-c1ccc(C(C)C)cc1)nc(=O)n2Cc1cccc(OC(C)(C)C)n1 | 62 to 65 °C |
| CCCCCCCCCCCCCCCCCCOC(=O)CP(=O)(OCC)OCC | 28 to 31 °C |
| O=c1[nH]c2ccccc2n1C1CCN(CCCOc2ccc(F)cc2Cl)CC1 | 149 to 150 °C |
| CCN(C(=O)OC(C)(C)C)C1CC=C(c2c[nH]c3ccc(NC(=N)c4cccs4)cc23)CC1 (centres undefined) | 124 to 126 °C |
| COc1ccc(-n2ccc(O)n2)cc1 | 167 to 170 °C |
| CC1(c2ccccc2)SC(=NO)N(Nc2ccccc2)C1=O (centres undefined) | 62 to 63 °C |
| COC(=O)c1cc2c3cc(C)ccc3n(C)c2s1 | 152 to 155 °C |
| CC(C)(C)OC(=O)N1CCN2C[C@H](COc3ccc(F)cc3)CC[C@H]2C1 | 90 to 92 °C |
| NS(=O)(=O)c1ccc(-n2nc(C(F)(F)F)cc2-c2ccc(-c3ccco3)c(Cl)c2)cc1F | 172 °C |
| CSC(=S)NN=Cc1c[nH]cn1 | 259 to 261 °C |
| Cc1nnc2n1-c1sc(C#CCn3c(=O)c4ccccc4c4ccccc43)cc1C(c1ccccc1Cl)=NC2 | 247 to 249 °C |
| Nc1ccc2cccc(Oc3cc(-c4ccc(C(F)(F)F)cc4N)ncn3)c2n1 | 233 to 234 °C |

| Structure (SMILES) | melting point |
| --- | --- |
| CC(=O)Nc1c(C(=O)c2ccccc2)[nH]c2cc(F)ccc12 | 144 to 145 °C |
| CC1(C)CC(=O)c2c(Sc3ccccc3)sc(-c3cc[nH]n3)c2C1 | 231 to 234 °C |
| Cc1ccc(Cl)c(C2CCc3c(C)cnnc3C2)c1 (centres undefined) | 65 to 70 °C |
| C=CCN1C(=O)COc2cc(Br)c(F)cc21 | 92 °C |
| O=S1(=O)NCN(C2CC2)c2cccc(Br)c21 | 189 to 191 °C |
| Cc1ccc(C(=O)NCCC(=O)OCc2ccccc2)c(NC(=O)C(CCCNC(=N)N[N+](=O)[O-])NC(=O)OCc2ccccc2)c1 (centres undefined) | 154 to 156 °C |
| COc1ccc2c(c1O)CC(C(=O)O)N(C(=O)N(C)c1ccccc1)C2 (racemic) | 235 to 255 °C |
| O=C(O)C1CSC(C2CC3C=CC2C3)N1 (mixture of isomers) | 220 °C |
| CCOC(=O)c1c(CN(C)O)nc2sc3c(c2c1-c1ccc(OC)c(OC)c1)CCN(C(=O)c1ccccc1)C3 | 129 to 130 °C |
| CO[C@H]1CN(c2c(F)c(N)c3c(=O)c(C(=O)O)cn([C@@H]4C[C@@H]4F)c3c2C)C[C@@H]1C1(N)CC1 | 202 to 204 °C |
| Cc1nc2ncnn2c(N[C@@H](C)c2ccc(F)cc2)c1Cl | 103 to 104 °C |
| O=c1[nH]nc(-c2cc(Cl)ccc2O)n1-c1ccc(C(F)(F)F)cc1 | 236 to 238 °C |
| O=C1c2c(Cl)cccc2S(=O)(=O)N1CCl | 135 to 136 °C |
| CC12CCC3c4ccc(C(=O)O)cc4CCC3C1CCC2C(=O)C1CCCCC1 (centres undefined) | 280 to 285 °C |
| CCC1(CC)CC(=O)c2cc(C#N)ccc2O1 | 71 to 72 °C |
| COc1c(C2CCN(CCCCNC(=O)c3ccc(-c4ccc(NC(=O)C(F)(F)F)cc4)cc3)CC2)ccc2c1CCCC2 | 226 to 228 °C |
| CC(=O)OC1=CCC2C3CCC4CCC(OC(C)=O)CC4(C)C3CCC12C (centres undefined) | 133 to 134 °C |
| CCCCCCCCCCOS(=O)(=O)NC(=O)Nc1c(C(C)C)cccc1C(C)C | 133 to 135 °C |
| O=S(=O)(Cc1ccc(Cl)cc1)Cc1ccc(Cl)cc1 | 94 to 95 °C |
| CCCc1nc(C(=O)OC)c(C(=O)OC)n1Cc1ccc(-c2ccccc2-c2nnn[nH]2)cc1 | 124 to 126 °C |
| Fc1ccccc1N1CCN(Cc2cn3cc(Cl)ccc3n2)CC1 | 107 to 108 °C |
| CONS(=O)(=O)c1cccc([N+](=O)[O-])c1 | 111 to 113 °C |
| O=C(Nc1ccc(OCCNCC2CC2)cc1)c1c[nH]c2c1C(=O)CCC2 | 234 °C |
| CCN1c2ncccc2C(OS(C)(=O)=O)Nc2c(C)cc(C)nc21 (centres undefined) | 154 to 155 °C |
